Results on 5 molecules are retold here after patent US4704277A, “Methods of treating bone disorders” (Sloan-Kettering Institute for Cancer Research, priority 1985, dated 1987).

For data set [1] the following is noted: patients treated in clinical testing; cited from earlier work.
The subject of another data set is bone resorption. As to the kind of experiment: Inhibition of bone resorption by gallium nitrate. The note with it: direct effect. On the procedure: (§1) These additional experiments were performed to permit evaluation of bone turnover in patients with bone metastases, in response to short term infusion of gallium nitrate.
The next data set has as its system bone tissue. The data set can be described thus: Histological studies of bone tissue for cytotoxicity. The text has this:
(§2) Cytotoxicity studies were undertaken to determine if gallium nitrate was cytotoxic to bone tissue. […] At this dose and time, a 20% decrease in ^3 H-thymidine incorporation into DNA was seen.

In data set [2] the test system is long bones (metaphyses and diaphyses). The data set can be described thus: Bone Ga, Ca, P content and ash weight of bone fragments from gallium-treated rats. The format is in vivo, Sprague-Dawley rats. The note with it: for bone calcium content vs nontreated: 7 injections of 5 mg over 14 days; for Ga content of bone: gallium treated rats, n=6, 20160 min. On the procedure: (§3) Young female (120 g) Sprague-Dawley rats received a course of injections with 0.5 or 5.0 mg gallium nitrate, every other day. The 0.5 mg concentration is approximately equivalent (on a weight/weight basis) to the dose used to treat patients with cancer-related hypercalcemia by Warrell, et. al., supra. The animals received 7 interperitoneal injections over a 9-14 day period. Control groups were injected with carrier only. […] To obtain bone samples the rats were anesthetized and then sacrificed. The long bones were removed and cleaned of all muscle and connective tissue. The metaphyseal (ends containing the growth plate) and diaphyseal (shaft) portions of the bones were separated using a dissecting microscope. The bone pieces were then split and cleaned of all visible marrow, frozen and lyophilized. The split, dried, marrow-free bone fragments were pulverized in a liquid nitrogen cooled colloid mill to produce bone powder. Aliquots of bone particles were used for: (a) ash weight determination, (b) measurement of Ga, Ca and P content and (c) X-ray diffraction analysis. A portion of one bone particle preparation was sieved to uniform size using an #325 stainless steel mesh. Approximately 50 mg of the sieved-particle bone was then dispersed in bromoform:toluene, density=2.0 g/cc (as measured with a pynconometer). The suspension was centrifuged in the cold at 100 x G for 15 minutes. The suspended particles, representing newly formed mineral bone, density <2.0 g/cc were removed, washed with acetone then dried. The pelleted particles, density >2.0 g/cc were similarly washed with acetone and dried. Both the light and heavy density fractions were analyzed for Ga and Ca content.
Gallium content in bone was measured by flameless atomic absorption spectrophotometry. Inorganic phosphorus was measured spectrophotometrically.
In subsequent experiments, rats were given 7 injections with 5 mg gallium nitrate over 14 days. […] As expected, increased calcium content was measured in the heavier density fraction >2.0 g/cc (220±31 vs 132±42 ug Ca/mg bone) which contained the more mineralized and more mature hydroxyapatite crystalline material.

Another data set concerns total serum calcium. As to the kind of experiment: Comparative effect of calcitonin and gallium nitrate on total serum calcium. The format is in vivo. The note with it: one patient; calcitonin many times over recommended dose; FIG. 1. On the procedure: Comparative studies were performed as to the effect of Calcitonin on total serum calcium, compared to gallium nitrate in a patient with severe life-threatening hypercalcemia due to bone metastases.

The subject of the next data set is bone calcium. Particulars: humans; application Ser. No. 622,726; cited from earlier work.
In a further data set the test system is bone hydroxyapatite. As to the kind of experiment: Wide angle X-ray diffraction of powdered bone (hydroxyapatite crystal size/perfection, B002). The format is in vivo, Sprague-Dawley rats. The note with it: for BOO2 (002 line width at half maximum): gallium treated rats, n=11. On the procedure: as §3
Aliquots of the powdered bone were subjected to wide angle x-ray diffraction using Cu K(alpha) radiation. Samples were rapidly scanned from 4° 2.phi. to 70° 2.phi. to detect the presence of phases other than hydroxyapatite. Triplicate slow scans from 24° to 28° 2.phi. were used to estimate hydroxyapatite crystal size and perfection based on the line-width measurements (B002) made at the half maximum point of the c-axis 002 reflection at 25.8° 2.phi.. […] As a consequence, crystals formed in the metaphyses of the treated animals were similar to those found in the more mature diaphyses.

The conditions of data set [3]: continuous infusion; Warrell 1983, Leyland-Jones 1983; cited from earlier work.
A short description of data set [4]: Body weight in gallium nitrate injected rats (lack of toxicity). The format is in vivo, Sprague-Dawley rats. The note with it: 0.5 or 5.0 mg i.p. every other day, end of 14 day schedule. The protocol: as §3, with “The suspension was centrifuged in the cold at 100 x G for 15 minutes. The suspended particles, representing newly formed mineral bone, density <2.0 g/cc were removed, washed with acetone then dried. The pelleted particles, density >2.0 g/cc were similarly washed with acetone and dried.” left out

In another data set the test system is bone cell models. The data set can be described thus: Cytotoxicity in bone cell models. The format is cell-based.
From the text: as §2

The subject of another data set is bone turnover. The data set can be described thus: Bone turnover in patients with bone metastases on short term gallium nitrate infusion. The format is in vivo, human (patients with bone metastases). On the procedure:
as §1
Seventeen infusions were administered to fifteen patients, five of whom were hypercalcemic. Gallium nitrate was administered as a continuous infusion at daily doses ranging from […], over 5-7 days. Bone turnover was assessed by serial measurements of urinary levels of Ca^2+, hydroxyproline (OHP), and creatinine (Cr), as well as the serum levels of osteocalcin (BGP). […] Mean reduction was 70±18%. Eight patients with increased bone turnover (i.e., a urinary OHP/Cr ratio greater than 6.0), received eleven drug infusions. […] Mean reduction was 49±22%.

The subject of another data set is bone. The note with it: cited from earlier work.

With `O=P(O)(O)C(Cl)(Cl)P(=O)(O)O` [dichloromethylenediphosphonate], the leukemia result in [1] is listed as “increased development of leukemia”.

Take `O=[N+]([O-])[O-].O=[N+]([O-])[O-].O=[N+]([O-])[O-].[Ga+3]` [gallium nitrate]: the “bone resorption” value in the data set on bone resorption is recorded as “directly inhibits bone resorption”. Also, the “cytotoxic effect at light microscopic level” value in the data set on bone tissue (histology) was “no evidence of cytotoxic effect”. The “matrix or mineral components” value with bone tissue (stained sections) is “no alteration in matrix or mineral components”. For the same molecule, the “mineral content (ash weights), treated vs control” value in data set [2] (7 injections with 5 mg gallium nitrate over 14 days) was “not significantly different”. For the same molecule, the “site of greatest gallium uptake” value in data set [2] (bone fragments, different total doses) was “metaphyseal bone”. The results for the “bone calcium content vs nontreated” value in [2] (diaphyseal fragments) and in [2] (metaphyses) were “No differences in calcium content” and “statistically significant increase in bone calcium content”, respectively. The entries for the “Ga content of bone” value in [2] (diaphyses) and in data set [2] (metaphyses) were 149 ± 30 ng/mg and 384 ± 69 ng/mg, respectively. In [2] (gallium:calcium ratio, different total doses), the “gallium incorporation into bone” value was “incorporated into bone in very low amounts”. In addition, the “Ca content of density fraction” value in [2] (heavier density fraction >2.0 g/cc) turned out to be 220±31 ug Ca/mg bone; in data set [2] (lighter fraction <2.0 g/cc (comparator of the 'vs')) it was 132±42 ug Ca/mg bone. Besides, the “Ga content of density fraction” value in [2] (heavier density fraction >2.0 g/cc (comparator of the 'vs.')) came out at 2.9±0.4 ug Ga/mg Ca; in data set [2] (lighter bone fraction, <2.0 g/cc (newly synthesized mineral)), 3.2±0.2 ug Ga/mg Ca. Further, in the data set on total serum calcium, the “reduction of elevated serum calcium vs calcitonin” value is on record as “distinctly greater effect on reducing elevated serum calcium”. In addition, the “excessive loss of bone calcium” value with bone calcium is “effective in reducing excessive loss of bone calcium”. Also, the mineral phases detected result with bone hydroxyapatite (all samples, scan 4° to 70° 2.phi.) is given as “The only phase detected in all samples was hydroxyapatite”. Further, the “BOO2 (002 line width at half maximum)” value in the data set with bone hydroxyapatite (diaphyses) and in the data set on bone hydroxyapatite (metaphyses) was 0.50 ± .03 degrees each time. Further, in the data set on bone hydroxyapatite (metaphyseal particles), the “B002 vs control” value was “differed significantly”. In the data set on bone hydroxyapatite (metaphyses, region of more active bone mineralization), the “hydroxyapatite crystal size/perfection” value is “larger or more perfect crystals”. Moreover, in data set [3], the safety of administration result is “safe and non-toxic”. Also, the “body weights or weight gained, treated vs nontreated” value in data set [4] is “no differences”. The “protein banding patterns on SDS-PAGE, treated vs untreated” value with bone cell models (3H-amino acid labeled cell homogenates) is “no differences”. Also, the “cell numbers or viability” value in the data set on bone cell models (48 hours, up to 25 uM) is reported as “Little change in cell numbers or viability”. Further, the “action as consequence of cytotoxic effect on bone cells” value with bone cell models (conclusion) is “not a consequence of a cytotoxic effect on bone cells”. Further, the “urinary OHP/Cr ratio” value in the data set with bone turnover (6 patients with bone turnover not elevated) is given as “no significant change”; with bone turnover (8 patients with increased bone turnover (OHP/Cr > 6.0)), “All patients showed a decrease in OHP/Cr”. Besides, the “mean reduction of urinary OHP/Cr ratio” value in the data set on bone turnover (8 patients with increased bone turnover (OHP/Cr > 6.0), 11 infusions) was found to be 49±22%. Besides, the “urinary 24 hour Ca2+ excretion” value in the data set with bone turnover (after each infusion in all 15 patients) was “markedly reduced after each infusion in all 15 patients”. In addition, in the data set with bone turnover (cancer patients with bone metastases), the “accelerated bone loss” value is “reduces accelerated bone loss”. The “mean reduction of urinary 24 hour Ca2+ excretion” value in the data set with bone turnover (continuous infusion 100-300 mg daily over 5-7 days, 15 patients) came out at 70±18%.

Turning to `F` [fluoride], the bone structure entry with bone (Jowsey et al. 1968) is listed as “highly abnormal (lamellar-type) bone structure which is less strong relative to normal bone”.

For the molecule `CC(O)(P(=O)(O)O)P(=O)(O)O` [EHDP], the bone mineralization entry in the data set on bone (Schenk et al. 1973) is “blocks normal bone mineralization and leads to formation of disordered and inadequately calcified bone (osteomalacia)”.

On to calcitonin, for which the “rate of bone resorption” value in the data set on bone (parenteral) was “transient decrease in the rate of bone resorption”. In the data set with bone (repetitive injections, Gruber et al.), the “bone mineral content (densimetric)” value is recorded as “increase bone mineral content”. The “duration of anti-resorptive effect” value with bone (tachyphylaxis) is “short-lived”.
